# Test results published in patent US20130189690A1, “SCN5A Splice Variants for Use in Methods Relating to Sudden Cardiac Death and Need for Implanted Cardiac Defibrillators” (The United States Government as represented by the …, priority 2011, published 2013).
# Experiments:
# [1] = system: NF-κB binding to the scn5a promoter; experiment: Electrophoretic mobility shift assay with H9c2 nuclear extracts; assay type: cell-based, rat; details: for effect of NF-κB inhibitor on NF-κB binding to scn5a promoter probe: CAPE 10 μM, H9c2, H2O2
# Source text: Approximately 5×10^6 cells were scraped for nuclear protein extraction by nuclear extract kit (Activemotif, Carlsbad, Calif.). A double-stranded oligonucleotide containing the consensus-binding sequence (bold) for […] ID NO. 657)) and NF-κB mutant sequence ([NT] ID NO. 658)) from scn5a promoter were used as probes to assay for binding activity of the nuclear extracts. Protein-DNA complexes were detected using biotin end-labeled double-stranded DNA probes prepared by annealing complementary oligonucleotides. Oligonucleotides were labeled in a reaction using terminal deoxynucleotide transferase and biotin-N4-CTP (Pierce, Rockford, Ill.) following the biotin 3' end DNA labeling kit manual. The binding reaction was performed using the LightShift kit (Pierce). […] Following electrophoresis, the DNA-protein complexes were transferred onto nylon membranes and detected using chemiluminescence. TNF-α activated H9c2 cell nuclear extract (5 μg) was used as positive control. The reaction products were separated on a 6% retardation gel.
# [2] = system: NF-κB subunits p50 and p65 on the scn5a promoter; experiment: Chromatin immunoprecipitation (ChIP) assay in H9c2 cells; assay type: cell-based, rat
# Description: Formaldehyde cross-linking and chromatin immunoprecipitation was performed as described in manufactory's manual (ChIP-IT™ kit, Activemotif). Briefly, proteins were crosslinked with chromatin using 1% formaldehyde in H9c2 cells with or without treatment. The cells were subsequently sonicated in lysis buffer, and an aliquot of the lysate was used in a PCR reaction. The remaining lysate was cleared with protein G beads. One half of the cleared lysate was incubated with p50 or p65 antibody, while the other half was used as a negative control without the antibody. After reversing the cross-linking, the immuno-complex was digested with proteinase K, and the DNA was purified. DNA was analyzed by PCR with the PicoMax Polymerase (Stratagene, La Jolla, Calif.) and primers specific to the APS3 promoter region.
# H9c2 cardiomyocytes = experiment: Trypan-blue exclusion cell viability assay; assay type: cell-based
# Description: To determine appropriate concentrations of these agents in future experiments, rat H9c2 cardiomyocytes were treated with escalating concentrations of AngII and H2O2, and the dose-dependent cell viability was determined. H9c2 cardiomyocytes were tolerant of a wide range of AngII concentrations from 1-500 nM in serum free medium (FIG. 14A). On the other hand, higher doses of H2O2 induced cell death starting at concentrations of 50 μM (FIG. 14B). […] Exposures of 48 h were used to allow sufficient time for transcriptional effects on the Na^+ current.
# The rat embryonic cardiomyocyte cell line, H9c2 (ATCC cat #CRL-1446), or acutely isolated neonatal rat heart cardiomyocytes were used. Rat neonatal ventricular cells were isolated from 3-day-old Sprague-Dawley rats (Charles River Laboratories Wilmington, Mass.) using a kit and following the manufacturer's instructions (Worthington Biochemical Corp. Lakewood, N.J.). Cells cultured in Dulbecco's modified Eagle's medium (DMEM; ATCC, Manassas, Va.) with 10% fetal calf serum (ATCC) under standard tissue culture conditions at 37° C. to 70-80% confluence were exposed to AngII (Sigma, St. Louis, Mo.) or H2O2 (Sigma) in serum free culture medium (SFM) for a total of 48 h in triplicate in 24 well plates. Experiments were repeated three times. […]
# [3] = system: cardiac sodium channel (scn5a) mRNA; experiment: scn5a mRNA abundance by quantitative real-time RT-PCR in H9c2 cells; assay type: cell-based, rat
# Source text: (§1) The rat embryonic cardiomyocyte cell line, H9c2 (ATCC cat #CRL-1446), or acutely isolated neonatal rat heart cardiomyocytes were used. Rat neonatal ventricular cells were isolated from 3-day-old Sprague-Dawley rats (Charles River Laboratories Wilmington, Mass.) using a kit and following the manufacturer's instructions (Worthington Biochemical Corp. Lakewood, N.J.). Cells cultured in Dulbecco's modified Eagle's medium (DMEM; ATCC, Manassas, Va.) with 10% fetal calf serum (ATCC) under standard tissue culture conditions at 37° C. to 70-80% confluence were exposed to AngII (Sigma, St. Louis, Mo.) or H2O2 (Sigma) in serum free culture medium (SFM) for a total of 48 h in triplicate in 24 well plates. Experiments were repeated three times. After dissociation with 0.125% trypsin-EDTA, 20 μL of 0.4% Trypan-blue (Sigma, St. Louis, Mo.) was added to each well, and a Trypan-blue exclusion viability assay was performed. The use of rats conforms with the Guide for the Care and Use of Laboratory Animals published by the US National Institutes of Health (NIH Publication No. 85-23, revised 1996).
# (§2) To determine the abundance of cardiac sodium channel (scn5a) mRNA under the various conditions, quantitative real-time RT-PCR was used. […] PCR products were analyzed by relative standard curve methods β-Actin was used as a reference when making quantitative comparison.
# [4] = system: cardiac sodium channel (scn5a) mRNA; experiment: scn5a mRNA abundance by quantitative real-time RT-PCR in neonatal cardiomyocytes; assay type: cell-based, rat
# Source text: as §1, §2
# [5] = system: cardiac Na+ channel current; experiment: Whole-cell patch-clamp Na+ current in H9c2 cells; assay type: cell-based, rat; details: H9c2, 20 μM H2O2 for 48 h, voltage step to −10 mV
# Description: Three hours prior to the start of the patch-clamp experiments, H9c2 cells were trypsinized and plated on treated plastic coverslips. H9c2 cells were treated with or without H2O2 as indicated. Glass pipettes were pulled on a Sutter Model P-97 horizontal puller to a resistance of 0.5 to 1.5 MΩ. The glass pipettes were filled with a solution of (in mM) CsCl 60, Cesium Aspartate 80, EGTA sodium 11, HEPES 10, Na2ATP 5 and pH 7.2 with CsOH. The bath solution consisted of (in mM) Na 30, […] chloride 100, CsCl 5, CaCl2 2, MgCl2 1.2, HEPES 10, Glucose 5 and pH 7.4 with NaOH. Once a seal was established, a small amount of suction was applied to obtain the whole cell configuration. From a holding potential of −100 mV, peak currents obtained at −10 mV were used for comparison. Cells were tested at 25° C. Data were sampled at 10 kHz and later filtered at 5 kHz for analysis. Currents were recorded and analyzed with an Axopatch 200B amplifier, Axon Digidata 1230A A/D converter and pClamp software (Molecular Devices Corporation, Sunnyvale, Calif.).
# scn5a promoter = experiment: scn5a promoter-reporter (dual luciferase) assay in H9c2 cells; assay type: cell-based, rat
# Description: The scn5a promoter region has previously been defined (Shang, L. L. & Dudley, S. C., Jr. (2005) J. Biol. Chem. 280, 933-940). For these experiments, a new promoter construct that contained the NF-κB consensus binding site was used to test the effect of treatments on scn5a transcription. This construct, pGL3-APS3, consisted of a 937 bp fragment starting from exon 1C to +32 base pairs relative to the start codon located on exon 2 of mouse scn5a gene.
# H9c2 cardiomyocytes were plated in each well of 24-well plates at a density of 2.5×10^4 cells in a final volume of 1 mL of culture medium, allowed to attach overnight, and expand to 70%-80% confluence. Transfection of 0.3 μg of the promoter-reporter construct and 0.013 μg of a plasmid containing the herpes simplex virus thymidine kinase (HSV-TK) promoter driving expression of a synthetic Renilla luciferase (phRL-TK; Promega, Madison, […].) was carried out with 0.9 μL of Fugene6 chemical transfection reagents (Roche, Indianapolis, Ind.) following the manufacturer's instructions. […] Light emission was quantified in a Veritas microplate luminometer using Veritas-version 1.4.0 software (Tuener Biosystems, Sunnyvale, Calif.). […] Four separate transfection sessions were analyzed, and at each session, transfections were performed in triplicate. Three dual luciferase readings were taken for each transfection experiment. […]
molecule,measurement,setting,value
"O=C(/C=C/c1ccc(O)c(O)c1)OCCc1ccccc1 [CAPE, caffeic acid phenethyl ester]",effect of NF-κB inhibitor on NF-κB binding to scn5a promoter probe,[1],prevented binding in response to H2O2
same,effect of NF-κB inhibitor on NF-κB binding to scn5a promoter probe,[1]; listed as caffeic acid phenethyl ester,blocked
same,effect of NF-κB inhibitor on binding of p50 and p65 to the channel promoter,"[2]; H9c2, CAPE",could prevent biding of both subunits
OO [H2O2],cell death at 20 μM H2O2,"H9c2 cardiomyocytes; 20 μM H2O2, 48 h",no statistically significant increase in cell death
same,H2O2 concentration at which cell death starts,H9c2 cardiomyocytes; 48 h,≥ 50 µM
same,reduction in Na+ channel mRNA,"[3]; H9c2 cells, 20 μmol/L H2O2, 48 h",46.9%
same,reduction in Na+ channel mRNA,"[4]; isolated neonatal rat myocytes, 40 nM H2O2, 48 h",45.4%
same,decrease in peak Na+ current,[5],46%
same,change in promoter activity of construct with mutated NF-κB binding site,"scn5a promoter; APS3-NF-κBm, H9c2, AngII or H2O2",no significant change in activity
same,depression of scn5a Na+ channel promoter activity,"scn5a promoter; APS3 construct with intact NF-κB site, H9c2, 20 μM H2O2, 48 h",42.3%
same,NF-κB binding activity to scn5a promoter probe,"[1]; H9c2 nuclear extracts, 48 h AngII or H2O2",increased
same,NF-κB subunit binding on the cardiac Na+ channel promoter,"[2]; H9c2, AngII or H2O2 treatment",formation of the complete p50-p65 NF-κB heterodimer
catalase,effect of catalase on AngII-mediated downregulation of Na+ channel mRNA,"[3]; H9c2, AngII 100 nM and PEG-catalase 250 U/mL, 48 h",prevented
same,effect of catalase on AngII-mediated downregulation of Na+ channel mRNA,"[4]; neonatal cardiomyocytes, AngII 2 nM and PEG-catalase 250 U/mL, 48 h",prevented
